Data set [1] relates to MT4. The data set is described as follows: In vitro antiviral activity against HIV-1 in MT-4 cells. Type of data set: functional, cell-based. To be noted: Homo sapiens.
Data set [2] is described as follows: In vitro cytotoxic concentration against CEM cells. The data set is classed as cell-based, CCRF-CEM. To be noted: human.
For data set [3], the system named is MT4. The data set is described as follows: In vitro antiviral activity against HIV-2 in MT-4 cells. Type of data set: functional, cell-based. To be noted: Homo sapiens.
Data set [4] is described as follows: In vitro cytotoxic concentration against MT-4 cells. The data set is classed as cell-based, MT4. To be noted: human.
For data set [5], the system named is CCRF-CEM. The data set is described as follows: In vitro antiviral activity against HIV-1 in CEM cells. The data set is classed as functional, cell-based. To be noted: Homo sapiens.
In data set [6] the test system is CCRF-CEM. The data set is described as follows: In vitro antiviral activity against HIV-2 in CEM cells. The data set is classed as functional, cell-based. To be noted: Homo sapiens.

The term EC50 denotes the concentration needed to bring the measured effect to its halfway point. Lower therefore signals a more potent agent. As usually defined, the CC50 is the concentration at which the toxic effect on the cells reaches its halfway point. Low values mean harm at low concentration, high ones better tolerance by the cells. Regarding `COC(=O)[C@@H](Cc1ccccc1)NP(=O)(CO[C@H](C)Cn1cnc2c(N)ncnc21)Oc1ccc(Cl)cc1` (stereo partly specified), the EC50 with MT4 [1] was 0.04 µM; in the data set on MT4 [3], 0.07 µM; in the data set on CCRF-CEM [5] it was 0.07 µM; in the data set with CCRF-CEM [6], 0.06 µM. The CC50 was 26 µM in data set [2] and 64 µM in data set [4].
Turning to `COC(=O)CNP(=O)(CO[C@H](C)Cn1cnc2c(N)ncnc21)Oc1ccccc1` (stereo partly specified), the EC50 in the data set on MT4 [1] was found to be 0.58 µM; with MT4 [3] it was 0.15 µM; with CCRF-CEM [5], 0.23 µM; with CCRF-CEM [6], 0.31 µM. For the same compound, the CC50 was 88.5 µM in data set [2] and 102 µM in data set [4].
In the case of `COC(=O)[C@@H](C)NP(=O)(CO[C@H](C)Cn1cnc2c(N)ncnc21)Oc1ccccc1` (stereo partly specified), the EC50 was 0.029 µM in the data set with MT4 [1], 0.026 µM with MT4 [3], 0.053 µM in the data set on CCRF-CEM [5] and 0.09 µM in the data set with CCRF-CEM [6]. Further, the CC50 was 27 µM in data set [2] and 71.4 µM in data set [4].
Turning to `COC(=O)[C@H](C)NP(=O)(CO[C@H](C)Cn1cnc2c(N)ncnc21)Oc1ccccc1` (stereo partly specified), the EC50 in the data set on MT4 [1] is 0.99 µM; in the data set on MT4 [3], 0.65 µM; in the data set with CCRF-CEM [5], 0.5 µM; in the data set with CCRF-CEM [6], 0.38 µM. For the same compound, the values for the CC50 in data set [2] and in data set [4] were 125 µM and 213 µM, respectively.
As to `COC(=O)[C@@H](C)NP(=O)(CO[C@H](C)Cn1cnc2c(N)ncnc21)Oc1ccc(Cl)cc1` (stereo partly specified), the EC50 was 0.15 µM with MT4 [1], 0.26 µM with MT4 [3], 0.2 µM in the data set with CCRF-CEM [5] and 0.12 µM with CCRF-CEM [6]. The CC50 was 106 µM in data set [2] and 57 µM in data set [4].
On to `COC(=O)CNP(=O)(COCCn1cnc2c(N)ncnc21)Oc1ccccc1` (stereo unspecified), for which the EC50 with MT4 [1] is 3.6 µM; in the data set on MT4 [3], 4.8 µM; in the data set on CCRF-CEM [5] it was 5.6 µM; in the data set on CCRF-CEM [6] it was 4.5 µM. In addition, the 50% cytotoxic concentration (CC50) in data set [2] was 80 µM; in data set [4], 120 µM.
Consider `COC(=O)[C@H](C)NP(=O)(COCCn1cnc2c(N)ncnc21)Oc1ccccc1` (stereo partly specified), for which the EC50 was determined as 15 µM in the data set with MT4 [1], 7.2 µM in the data set with MT4 [3], 5 µM in the data set with CCRF-CEM [5] and 6 µM in the data set on CCRF-CEM [6]. Also, the CC50 in data set [2] was 67 µM; in data set [4], 120 µM.
As for `COC(=O)[C@@H](C)NP(=O)(COCCn1cnc2c(N)ncnc21)Oc1ccccc1` (stereo partly specified), the concentration for a half-maximal effect (EC50) with MT4 [1] was found to be 0.23 µM; with MT4 [3], 0.15 µM; with CCRF-CEM [5], 0.12 µM; with CCRF-CEM [6], 0.2 µM. The values for the CC50 in data set [2] and in data set [4] were 3.7 µM and 5.1 µM, respectively.
`C[C@H](Cn1cnc2c(N)ncnc21)OCP(=O)(Oc1ccccc1)Oc1ccccc1`: the EC50 in the data set on MT4 [1] turned out to be 6.2 µM; with MT4 [3] it was 4.9 µM; in the data set with CCRF-CEM [5], 4 µM; in the data set on CCRF-CEM [6], 4 µM. The CC50 in data set [2] and in data set [4] was more than 250 µM each time.
Turning to `Nc1ncnc2c1ncn2CCOCP(=O)(O)O` [ADEFOVIR], the EC50 was determined as 7 µM in the data set on MT4 [1], 7.5 µM with MT4 [3], 7 µM in the data set with CCRF-CEM [5] and 10 µM with CCRF-CEM [6]. Besides, the CC50 is 69 µM in data set [2] and 144 µM in data set [4].
For `C[C@H](Cn1cnc2c(N)ncnc21)OCP(=O)(O)O` [TENOFOVIR ANHYDROUS], the EC50 worked out at 2.3 µM in the data set on MT4 [1], 1.4 µM in the data set on MT4 [3], 3.67 µM with CCRF-CEM [5] and 3.67 µM in the data set with CCRF-CEM [6]. The CC50 in data set [2] is more than 250 µM; in data set [4], 197 µM.

The record behind these values is ChEMBL document CHEMBL1134026, “Synthesis and evaluation of novel amidate prodrugs of PMEA and PMPA” (Bioorg Med Chem Lett, 2001).
